Experimental findings from US8598168B2 (MethylGene Inc., priority 2006, dated 2013) are described below.

A value given as a limit tells only on which side of the number the result lay.

For data set [1], the target named is HDAC-1 (Homo sapiens, UniProt Q13547). Description: Inhibition of Histone Deacetylase Enzymatic (HDAC-1) Activity. The format is biochemical. Conditions: Table 21. On the procedure: The following protocol was used to assay the compounds of the invention.
The mixture was pre-incubated for 5 minutes at room temperature. The reaction was started by bringing the temperature to 37° C. and adding 15 μl substrate. Total reaction volume was 50 μl.

The nature of data set [2]: Log D (comparison with previously disclosed compounds). Type of data set: physicochemical. The settings on record: pH 7.4.
The test system of data set [3] is human colon cancer HCT116 cells. Description: MTT Assay. Type of data set: cell-based. Conditions: HCT-116, 72 hours, Table 21. On the procedure:
Compounds at various concentrations were added to human colon cancer HCT116 cells plated in 96-well plates. Cells were incubated for 72 hours at 37° C. in 5% CO2 incubator. MTT (3-[4,5-dimethylthiazol-2-yl]-2,5 diphenyl tetrazolium bromide, Sigma) was added at a final concentration of 0.5 mg/ml and incubated with the cells for 4 hours before an equal volume of solubilization buffer (50% N,N-dimethylformamide, 20% SDS, pH 4.7) was added onto cultured cells. After overnight incubation, solubilized dye was quantified by colorimetric reading at […] using a reference at 630 nM. OD values were converted to cell numbers according to a standard growth curve of the relevant cell line. The concentration which reduces cell numbers to 50% of those of DMSO-treated cells is determined as MTT IC50.

HDAC-1, sequence (Q13547 whole entry): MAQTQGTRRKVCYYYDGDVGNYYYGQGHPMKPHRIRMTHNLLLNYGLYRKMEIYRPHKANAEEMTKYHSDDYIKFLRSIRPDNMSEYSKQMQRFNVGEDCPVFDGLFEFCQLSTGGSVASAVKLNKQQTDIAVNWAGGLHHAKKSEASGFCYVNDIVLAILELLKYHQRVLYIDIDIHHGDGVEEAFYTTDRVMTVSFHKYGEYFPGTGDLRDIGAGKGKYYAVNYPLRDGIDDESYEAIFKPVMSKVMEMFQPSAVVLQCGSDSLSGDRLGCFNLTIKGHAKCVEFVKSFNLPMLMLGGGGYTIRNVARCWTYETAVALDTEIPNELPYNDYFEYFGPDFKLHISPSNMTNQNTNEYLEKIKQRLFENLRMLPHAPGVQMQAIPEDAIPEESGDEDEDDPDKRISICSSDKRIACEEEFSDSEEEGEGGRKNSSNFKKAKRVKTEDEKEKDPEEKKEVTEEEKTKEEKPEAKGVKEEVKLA

Take `Nc1ccc(-c2cccs2)cc1NC(=O)c1ccc(CN2CC[C@H](Nc3cccnc3)C2)cc1` [compound 249, (S)—N-(2-Amino-5-(thiophen-2-yl)phenyl)-4-((3-(pyridin-3-ylamino)pyrrolidin-1-yl)methyl)benzamide]: the IC50 in data set [1] and in data set [3] was below 1000 nM in each case. Besides, the logD in data set [2] is 3.27.

Take `Nc1ccc(-c2cccs2)cc1NC(=O)c1ccc(CN2CCN(c3ccncc3)CC2)cc1` [compound 85, N-(2-amino-5-(thiophen-2-yl)phenyl)-4-((4-(pyridin-4-yl)piperazin-1-yl)methyl)-benzamide]: the IC50 in data set [1] and in data set [3] was below 1000 nM each time. This compound also came in with a logD in data set [2] of 3.32.

Regarding `COCCN1CCN(c2ccc(C(=O)Nc3cc(-c4cccs4)ccc3N)cc2)CC1` [compound 108, N-(2-amino-5-(thiophen-2-yl)phenyl)-4-(4-(2-methoxyethyl)-piperazin-1-yl)benzamide], the IC50 in data set [1] and in data set [3] was below 1000 nM throughout. This compound registered a logD in data set [2] of 1.78.

Turning to `Nc1ccc(-c2cccs2)cc1NC(=O)c1ccc(CN2CCN(Cc3ccccc3)CC2)cc1` [compound 91, N-(2-amino-5-(thiophen-2-yl)phenyl)-4-((4-benzylpiperazin-1-yl)methyl)-benzamide], the IC50 in data set [1] and in data set [3] was below 1000 nM throughout. Further, the logD in data set [2] was found to be 4.01.

Regarding `Nc1ccc(-c2cccs2)cc1NC(=O)c1ccc(CN2CCN(C3CCCC3)CC2)cc1` [compound 16, N-(2-amino-5-(thiophen-2-yl)phenyl)-4-((4-cyclopentylpiperazin-1-yl)methyl)benzamide], the IC50 in data set [1] and in data set [3] was below 1000 nM in each case. The compound further came in with a logD in data set [2] of 3.3.

In the case of `CN1CCN(Cc2ccc(C(=O)Nc3cc(-c4cccs4)ccc3N)cc2)CC1` [compound 78, N-(2-amino-5-(thiophen-2-yl)phenyl)-4-((4-methylpiperazin-1-yl)methyl)-benzamide], the IC50 in data set [1] and in data set [3] was below 1000 nM in each case. In addition, in data set [2], the log distribution coefficient (logD) turned out to be 2.29.

Take `CC(C)N1CCN(Cc2ccc(C(=O)Nc3cc(-c4cccs4)ccc3N)cc2)CC1` [compound 15, N-(2-amino-5-(thiophen-2-yl)phenyl)-4-((4-isopropylpiperazin-1-yl)methyl)benzamide]: the IC50 in data set [1] and in data set [3] was below 1000 nM in each case. The logD in data set [2] was found to be 2.15.

As to `CN(C)CCSc1ccc(C(=O)Nc2cc(-c3cccs3)ccc2N)cc1` [compound 106, N-(2-amino-5-(thiophen-2-yl)phenyl)-4-(2-(dimethyl-amino)ethylthio)-benzamide], the IC50 was below 1000 nM in data set [1] and 1000 to 5000 nM in data set [3]. The logD in data set [2] was determined as 2.85.

On to `Nc1ccc(-c2cccs2)cc1NC(=O)c1ccc(CN2CCC[C@H]2CN2CCCC2)cc1` [compound 86, (S)-N-(2-amino-5-(thiophen-2-yl)phenyl)-4-((2-(pyrrolidin-1-ylmethyl)-pyrrolidin-1-yl)methyl)-benzamide], for which the IC50 in data set [1] and in data set [3] was below 1000 nM each time. Moreover, in data set [2], the logD was found to be 0.86.

For `CN(C)[C@H]1CCN(c2ccc(C(=O)Nc3cc(-c4cccs4)ccc3N)cc2)C1` [compound 101, (S)—N-(2-Amino-5-(thiophen-2-yl)phenyl)-4-(3-(dimethylamino)pyrrolidin-1-yl)benzamide], the IC50 in data set [1] and in data set [3] was below 1000 nM in each case. In data set [2], this compound came in with a logD of 1.94.

In the case of `Nc1ccc(-c2ccccc2)cc1NC(=O)C1CCN(S(=O)(=O)c2ccc([N+](=O)[O-])cc2)CC1` [compound 320, N-(4-Aminobiphenyl-3-yl)-1-(4-nitrophenylsulfonyl)piperidine-4-carboxamide], in data set [1], the IC50 is below 1000 nM. The compound also gave a logD in data set [2] of 3.21.

For `CCN(CC)Cc1ccc(C(=O)Nc2cc(-c3cccs3)ccc2N)cc1` [compound 79, N-(2-amino-5-(thiophen-2-yl)phenyl)-4-((diethylamino)-methyl)benzamide], the IC50 in data set [1] and in data set [3] was below 1000 nM throughout. The logD in data set [2] was found to be 3.19.

On to `CCN(CC)CCSc1ccc(C(=O)Nc2cc(-c3cccs3)ccc2N)cc1` [compound 107, N-(2-amino-5-(thiophen-2-yl)phenyl)-4-(2-(diethyl-amino)-ethylthio)-benzamide], for which the IC50 in data set [1] is below 1000 nM. Moreover, the logD in data set [2] amounted to 2.58.

The compound `Nc1ccc(-c2cccs2)cc1NC(=O)N1CCN(Cc2ccc3c(c2)OCO3)CC1` [compound 316, N-(2-Amino-5-(thiophen-2-yl)phenyl)-4-(benzo[d][1,3]dioxol-5-ylmethyl)piperazine-1-carboxamide] returned an IC50 in data set [1] below 1000 nM. Further, the logD in data set [2] came out at 2.32.

Regarding `COCCN(CCOC)Cc1ccc(C(=O)Nc2cc(-c3cccs3)ccc2N)cc1` [compound 10, N-(2-amino-5-(thiophen-2-yl)phenyl)-4-((bis(2-methoxyethyl)amino)methyl)benzamide], the IC50 in data set [1] and in data set [3] was below 1000 nM in each case. Moreover, in data set [2], the logD came to 3.1.

Regarding `Nc1ccc(-c2cccs2)cc1NC(=O)c1ccc(CN2CCN(c3ccccn3)CC2)cc1` [compound 89, N-(2-amino-5-(thiophen-2-yl)phenyl)-4-((4-(pyridin-2-yl)piperazin-1-yl)methyl)-benzamide], the IC50 in data set [1] and in data set [3] was below 1000 nM each time. In data set [2], this compound showed a logD of 3.38.

Consider `Nc1ccc(-c2cccs2)cc1NC(=O)c1ccc(N2CCC(N3CCCC3)CC2)cc1` [compound 105, N-(2-amino-5-(thiophen-2-yl)phenyl)-4-(4-(pyrrolidin-1-yl)piperidin-1-yl)benzamide], for which the IC50 in data set [1] and in data set [3] was below 1000 nM throughout. Moreover, the logD in data set [2] came to 1.6.

With `CN(C)[C@H]1CC(=O)N(Cc2ccc(C(=O)Nc3cc(-c4cccs4)ccc3N)cc2)C1=O` [compound 242, (S)—N-(2-Amino-5-(thiophen-2-yl)phenyl)-4-((3-(dimethylamino)-2,5-dioxopyrrolidin-1-yl)methyl)benzamide], the IC50 was below 1000 nM in data set [1] and 1000 to 5000 nM in data set [3]. The compound also returned a logD in data set [2] of 1.81.

For the compound `Nc1ccc(-c2cccs2)cc1NC(=O)c1ccc(CN2CC[C@@H](O)C2)cc1` [compound 83, (R)-N-(2-amino-5-(thiophen-2-yl)phenyl)-4-((3-hydroxy-pyrrolidin-1-yl)methyl)-benzamide], the IC50 is below 1000 nM in data set [1] and 1000 to 5000 nM in data set [3]. In addition, the logD in data set [2] is 2.6.

Regarding `CN(C)[C@H]1CCN(Cc2ccc(C(=O)Nc3cc(-c4cccs4)ccc3N)cc2)C1` [compound 81, (S)-N-(2-amino-5-(thiophen-2-yl)phenyl)-4-((3-(dimethylamino)-pyrrolidin-1-yl)methyl)-benzamide], the IC50 in data set [1] and in data set [3] was below 1000 nM in each case. The same compound had a logD in data set [2] of 2.11.

For the compound `Nc1ccc(-c2cccs2)cc1NC(=O)c1ccc(CN2CCCCC2)cc1` [compound 12, N-(2-amino-5-(thiophen-2-yl)phenyl)-4-(piperidin-1-ylmethyl)benzamide], the IC50 in data set [1] is below 1000 nM; in data set [3], 1000 to 5000 nM. This compound also showed a logD in data set [2] of 3.86.

On to `Nc1ccc(-c2cccs2)cc1NC(=O)c1ccc(CN2CCCC2)cc1` [compound 90, N-(2-amino-5-(thiophen-2-yl)phenyl)-4-(pyrrolidin-1-ylmethyl)-benzamide], for which the IC50 in data set [1] and in data set [3] was below 1000 nM each time. Further, the logD in data set [2] came to 3.15.

As a reminder, the IC50 is the midpoint of a concentration-inhibition curve. The term logD denotes lipophilicity at a set pH, counting ionised and neutral species. Low readings indicate lower lipophilicity, high ones higher lipophilicity.
